Data from patent US11351138B2, “Composition for use in the treatment of epilepsy” (VITAFLO INTERNATIONAL LTD, priority 2017, dated 2022).
“Also recorded” adds a separate entry of the source.

Tests used:
[1] = clinically relevant concentrations, in vitro and in vivo; cited from earlier work
[2] = cited from earlier work
[3] = animal models; cited from earlier work
GluA2/3 AMPA receptors [4] = target: T1, GluA2/3 AMPA receptors (Homo sapiens, UniProt P42262+P42263); conditions: Chang et al., Brain 2016; cited from earlier work
T1 construct: expressed in transfected cells; host or cells: Xenopus laevis oocytes injected with in vitro transcribed cRNA (GluA2 and GluA3, nominal 1:1)

SH-SY5Y cells [5] = type: cell-based; conditions: human, 6 h, 250 μM
Protocol: SH-SY5Y cells were utilised between passages 20-24 for all experimental procedures. Cells were cultured in 1:1 Dulbecco's Modified Eagle's Medium (DMEM)/F12 media, containing 17.5 mM glucose and supplemented with 100 ml/L heat-inactivated foetal bovine serum (FBS) and 10 ml/L 200 mM L-glutamine. All cells were maintained in a humidified atmosphere at 37° C. and 5% CO2. Cells were sub-cultured by washing with 10 ml/flask Mg^2+1c a ^2+-free Dulbecco's phosphate-buffered saline (DPBS), lifted with 2 ml 0.25% trypsin-EDTA and suspended in 8 ml culture medium to inactivate the trypsin. The cell suspension was transferred to a falcon tube and centrifuged for 4 minutes at 500×g. The supernatant was removed and cells suspended in a known volume of fresh culture medium. Cells were counted using the Trypan Blue exclusion test for viability. A known volume of the cell suspension was mixed 1:1 with 0.4% Trypan Blue solution and counted with a Bio-Rad TC20™ Automated Cell Counter (Hemel Hempstead, UK). […]
Samples were thawed at room temperature and 100 μl 1M hydrochloric acid was injected through the septum into each vial to release CO2 from the media. […] Samples were then analysed on a GasBench II coupled to a Thermo Delta-XP isotope-ratio mass spectrometer. […]

SH-SY5Y cells [6] = test: CPT1 inhibition assay (etomoxir), oxidation rates in SH-SY5Y cells; type: cell-based; conditions: for Oxidation rate +Etomoxir / Oxidation rate −Etomoxir: 250 μM substrate, mean±SEM; for Oxidation rate +Etomoxir: 50 μM etomoxir; for Oxidation rate −Etomoxir: without etomoxir
Protocol: C16:BSA complex (5:1 molar ratio fatty acid:BSA). […] Both solutions were aliquoted and stored at −20° C. until further use.
A stock solution of 50 mM etomoxir was prepared in sterile cell culture grade water and stored in aliquots at −20° C. On day 5 of culture, growth medium was replaced with 2 ml DMEM formula containing 3 mM D-glucose and 10% FBS. Cells were incubated with or without the presence of 50 μM etomoxir, for 20 h at 37° C. and 5% CO2. […] C8 or [U-^13C] C16:BSA, with 50 μM etomoxir also added to previously exposed cells. Wells were then sealed with heavy mineral oil, with cells incubated and media sampled as previously described.
Samples were thawed at room temperature and 100 μl 1M hydrochloric acid was injected through the septum into each vial to release CO2 from the media. Vials were centrifuged for 30 seconds at 500×g. Samples were then analysed on a GasBench II coupled to a Thermo Delta-XP isotope-ratio mass spectrometer.

GluA2/3 AMPA receptors [7] = target: T1, GluA2/3 AMPA receptors; test: AMPA receptor (GluA2/3) currents in Xenopus oocytes, two-electrode voltage clamp; type: cell-based; conditions: GluA2/3 in oocytes, 100 uM glutamate, total medium chain fatty acid content 1 mM
Protocol: The AMPA receptor (flip isoform) cDNAs inserted in a SP6 polymerase expression vector (pSP6T) were a gift from Prof Ralf Schoepfer (NPP, UCL). RNA was transcribed in vitro from Miu I linearised transcripts using the SP6 Promega RiboMax RNA synthesis kit (Madison, Wis.) according to manufacturers protocols except for the addition of 0.75 mM capping nucleotide m7G(5′)ppp(5′)G (Promega, Madison, Wis.) and 1.6 mM GTP. cRNA concentrations and integrity were estimated by the intensity of fluorescence bands in RNA denaturating gels. AMPA receptor cRNAs were mixed in a nominal 1:1 ratio and approximately 5 ng was injected per oocyte.
Xenopus laevis oocytes were purchased from the European Xenopus Resource Centre, University of Portsmouth. Stage V to VI oocytes were mechanically dissected and then subjected to gentle shaking for approximately 30-50 min at room temperature with modified Barth's solution (in mM): NaCl 88, KCl 1, NaHCO32.4, MgCb 0.82, CaCl2) 0.77, Tris-Cl 15, adjusted to pH 7.4 with NaOH (Sigma-Aldrich, UK), supplemented with 50 IU/ml penicillin and 50 μg/ml streptomycin (Invitrogen, UK) and 50 μg/ml tetracycline (Sigma-Aldrich, UK) and 1% collagenase (type 1A). […]

SH-SY5Y cells [8] = test: C10 and C8 co-incubation, C10 oxidation in SH-SY5Y cells; type: cell-based; conditions: 250 μM [1-13C]C10 plus 62.5 μM unlabelled C8
Protocol: The effects of co-incubating C10 and C8 on C10 oxidation in SH-SY5Y cells were also explored. Additional stock solutions of 25 mM C8 and 100 mM [1-^13C]C10 were prepared in DMSO, sterile-filtered and stored in aliquots at −20° C. Cells were cultured and incubated for 20 h in 10% FBS-supplemented DMEM media containing 3 mM D-glucose, as previously described. Media was then removed and cells washed. Media was then replaced with 3 ml DMEM containing either 3 mM [U-^13C]glucose and vehicle control DMSO, or 3 mM unlabelled D-glucose. In each D-glucose-supplemented well, cells were treated with either a final concentration of 250 μM [1-^13C] C10, or 250 μM [1-^13C]C10 plus 62.5 μM C8, at a fixed total volume. Wells were then sealed with heavy mineral oil, cells incubated and media sampled as previously outlined.
Samples were thawed at room temperature and 100 μl 1M hydrochloric acid was injected through the septum into each vial to release CO2 from the media. Vials were centrifuged for 30 seconds at 500×g. Samples were then analysed on a GasBench II coupled to a Thermo Delta-XP isotope-ratio mass spectrometer. Ten repeat injections were carried out per sample, with d^13C/^12C ratios measured against Vienna Pee Dee Belemnite (VPDB) using a calibrated CO2 reference gas. ^13CO2/^12CO2 ratios were converted to mole percent excess using absolute molar ratio of ^13C to ^12C (0.0111796) in VPDB. […]

SH-SY5Y cells [9] = test: Cell viability, Trypan Blue exclusion test; type: cell-based; conditions: 50 μM etomoxir, 20 h + 6 h; data not shown
Protocol: Cells were incubated for 20 h at 37° C. and 5% CO2 with 50 μM etomoxir in DMEM media supplemented with 10% FBS, and then a further 6 h at 37° C. with 50 μM etomoxir in DMEM media without FBS. Cells were then lifted from wells with 1 ml 0.25% trypsin-EDTA, suspended in 4 ml culture medium and centrifuged for 4 minutes at 500×g. Supernatant was removed and cells suspended in 1 ml of fresh culture medium. Viability of cells was then tested using the Trypan Blue exclusion test.

T1 sequence (P42262 25-883 isoform P42262-2 limits assumed): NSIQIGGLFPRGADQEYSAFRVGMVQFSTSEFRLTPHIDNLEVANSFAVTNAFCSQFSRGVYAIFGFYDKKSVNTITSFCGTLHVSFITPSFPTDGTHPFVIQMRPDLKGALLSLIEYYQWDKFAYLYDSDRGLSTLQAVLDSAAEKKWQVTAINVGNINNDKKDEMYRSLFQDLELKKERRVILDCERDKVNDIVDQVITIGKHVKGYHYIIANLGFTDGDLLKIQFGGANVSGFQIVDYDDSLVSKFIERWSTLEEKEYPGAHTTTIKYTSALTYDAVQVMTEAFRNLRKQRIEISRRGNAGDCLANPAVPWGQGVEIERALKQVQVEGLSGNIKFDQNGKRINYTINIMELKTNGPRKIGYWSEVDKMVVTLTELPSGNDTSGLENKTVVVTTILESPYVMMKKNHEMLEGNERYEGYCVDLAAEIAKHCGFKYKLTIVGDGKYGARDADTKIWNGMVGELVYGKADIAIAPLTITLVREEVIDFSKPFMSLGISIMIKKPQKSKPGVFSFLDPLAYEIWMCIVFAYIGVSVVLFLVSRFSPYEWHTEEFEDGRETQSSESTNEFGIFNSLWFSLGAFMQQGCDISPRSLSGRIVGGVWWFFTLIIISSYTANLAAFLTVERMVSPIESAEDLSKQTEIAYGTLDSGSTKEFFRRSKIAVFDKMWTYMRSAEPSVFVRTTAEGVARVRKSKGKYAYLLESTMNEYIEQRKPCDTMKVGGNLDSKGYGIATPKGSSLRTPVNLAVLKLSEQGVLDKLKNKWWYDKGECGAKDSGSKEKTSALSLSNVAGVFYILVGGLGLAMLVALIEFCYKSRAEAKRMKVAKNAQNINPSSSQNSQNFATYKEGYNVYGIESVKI
T1 sequence (P42263 29-894 isoform P42263-2 limits assumed): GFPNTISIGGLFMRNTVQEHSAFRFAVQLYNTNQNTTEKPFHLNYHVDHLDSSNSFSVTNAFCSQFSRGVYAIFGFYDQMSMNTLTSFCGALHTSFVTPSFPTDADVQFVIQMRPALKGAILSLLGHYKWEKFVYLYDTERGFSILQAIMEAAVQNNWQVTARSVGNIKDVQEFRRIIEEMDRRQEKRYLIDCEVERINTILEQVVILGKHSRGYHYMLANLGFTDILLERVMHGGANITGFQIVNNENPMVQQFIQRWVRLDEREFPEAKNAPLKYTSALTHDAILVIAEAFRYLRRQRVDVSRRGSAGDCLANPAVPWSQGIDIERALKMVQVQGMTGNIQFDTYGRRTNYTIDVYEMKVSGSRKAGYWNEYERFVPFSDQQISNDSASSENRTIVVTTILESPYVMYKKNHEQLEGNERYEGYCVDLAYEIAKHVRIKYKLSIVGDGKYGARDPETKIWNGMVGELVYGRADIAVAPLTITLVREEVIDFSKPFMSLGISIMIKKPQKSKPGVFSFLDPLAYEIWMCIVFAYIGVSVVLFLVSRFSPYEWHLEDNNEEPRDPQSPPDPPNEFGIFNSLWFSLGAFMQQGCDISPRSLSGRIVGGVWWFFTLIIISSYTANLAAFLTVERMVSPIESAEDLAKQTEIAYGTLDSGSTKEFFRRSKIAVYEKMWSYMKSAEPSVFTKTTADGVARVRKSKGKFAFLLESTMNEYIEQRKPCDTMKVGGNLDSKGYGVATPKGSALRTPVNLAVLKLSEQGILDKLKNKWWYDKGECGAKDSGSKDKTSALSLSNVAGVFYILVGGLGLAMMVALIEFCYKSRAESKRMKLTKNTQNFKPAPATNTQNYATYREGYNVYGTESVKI

| SMILES | anti-seizure effects [1] | concentration in peripheral blood (average) [2] | concentration in peripheral blood (range) [2] [µM] | effect on AMPA receptors / AMPA receptor currents (GluA2/3 AMPA receptors [4]) | reduction of oxidation in the presence of etomoxir (SH-SY5Y cells [6]; human, 6 h, 250 μM) [%] | Oxidation rate +Etomoxir (SH-SY5Y cells [6]) [nmol/h] | Oxidation rate −Etomoxir (SH-SY5Y cells [6]) [nmol/h] | further results |
| --- | --- | --- | --- | --- | --- | --- | --- | --- |
| CCCCCCCCCC(=O)O [decanoic acid, Decanoic acid] | acute antiseizure effects; also recorded: has anti-seizure effects | 157 µM | 87 to 552 | inhibits AMPA receptors | 95 |  |  | ratio in blood plasma to brain [3]: around 0.7; C10 oxidation lower than that of C8 by (SH-SY5Y cells [5]): approximately 80%; inhibition of AMPA receptor currents by decanoic acid:octanoic acid ratios (GluA2/3 AMPA receptors [7]): no increase in AMPA receptor inhibition; impairment of oxidation rate of C10 by C8 addition (SH-SY5Y cells [8]): 29% |
| CCCCCCCC(=O)O [octanoic acid, Octanoic acid] | not | around 306 μM | 104 to 859 | no effect on AMPA receptor currents | 34 |  |  |  |
| CCCCCCC[13C](=O)O [[1-^13C]C8, [1^13C]octanoic acid] |  |  |  |  |  | 0.75 ± 0.06 | 1.14 ± 0.11 |  |
| CCOC(=O)[C@@]1(CCCCCCOc2ccc(Cl)cc2)CO1 [etomoxir] |  |  |  |  |  |  |  | effect on viability of SH-SY5Y cells (SH-SY5Y cells [9]): no effect on viability |
| [13CH3][13CH2][13CH2][13CH2][13CH2][13CH2][13CH2][13CH2][13CH2][13CH2][13CH2][13CH2][13CH2][13CH2][13CH2][13C](=O)O [[U-^13C]C16, [U-^13C]palmitic acid, reference compound] |  |  |  |  |  | 0.002 ± 0.003 | 0.22 ± 0.05 | reduction of oxidation in the presence of etomoxir (SH-SY5Y cells [6]; 50 μM etomoxir (CPT1 inhibition)): 99% |
